Laboratory results published in US8916164B2, “Methods of enhancing adjuvaticity of vaccine compositions” (ABIVAX, priority 2007, dated 2014).
Entries after “also recorded” stand apart in the source; their conditions may differ.

Columns and labels:
NKT cells [1] = experiment: Expansion of NKT cells in culture of peripheral blood lymphocytes (PBL), flow cytometry on day 7; type: cell-based, human; conditions: for percentage of NKT cells in the CD3+ population: PBL of two healthy donors, 10 ng/ml, 100 ng/ml or 1 μg/ml, rhIL-2, day 7 (FIG. 1)
Method: PBLs were derived from two healthy donors and grown in RPMI cell culture media with 5% AB serum. Cells were plated on 12-well plates at 2×10^6 PBL/well/2 ml. Wells were treated with negative controls (0.05% Tween20 and 1% DMSO in PBS or 0.05% Tween20 and 10% DMSO in PBS) or the test adjuvants (αGalCer, PBS-20, PBS-25, or PBS-57) at a final concentration of 10 ng/ml, 100 ng/ml or 1 μg/ml. The chemical structures for control compounds αGalCer, PBS-20 and PBS25 are shown below:
All cultures were supplemented with recombinant human IL2 (rhIL-2) to obtain final concentration of 100 UI/ml by day 1. All cells were cultured for 10 days at 37° C. under 5% CO2. On day 7, half the culture medium (1 ml) was removed for NKT analysis. Percentage of NKT cells in the CD3+ population was detected by flow cytometry using fluorescently labeled CD1 tetramers or fluorescently labeled antibodies (anti-CD3, anti-Vβ11, and anti NKT). The NKT population was identified by flow cytometry as the Vβ11+, Tetramer+ and TCRαβ+ population. NKT cell percentage was calculated in each sample by subtracting the Vβ11+ PBS -57-tetramer+ TCRαβ+ from the Vβ11+ empty-tetramer+TCRαβ+.
Peripheral blood lymphocytes were derived from two healthy donors and cultured in RPMI with 5% AB serum. Cells are plated in a 12-well plate with 2×10^6 cells per well per 2 ml media. One well received carrier (0.05% Tween20 and 1% DMSO in PBS) as a negative control, and test wells received αGalCer, PBS-25, PBS-57, or PBS-83 at final concentrations of 1 ng/ml, 10 ng/ml and 100 ng/ml. The structure of PBS-83 is shown below:
All cultures were supplemented with rhIL-2 to obtain a final concentration of 100 UI/ml by day 1, and cultured for 7 days at 37° C. under 5% CO2 conditions. At day 7, the percentage NKT cells was detected by flow cytometry.

NKT cells [2] = experiment: Increase in NKT cells (day 7 / day 0) in PBL/PBMC cultures from healthy donors; type: cell-based; conditions: PBL cultures from human volunteers (FIG. 3)
Method: NKT staining was performed on a panel of fourteen healthy donor peripheral blood lymphocytes (PBL) or peripheral blood […] (PBMC) samples. PBLs were isolated from 12 subjects, and PBMCs were isolated from 2 subjects. Each isolated cell sample was split into two samples. The first sample from each donor was stained with 10 μl anti-Vβ11 FITC (Beckman Coulter), 10 μl anti-TCRαβ-PC5 (Beckman Coulter), and 2 μl PE-labeled PBS-57-CD1d-tetramer. The second sample from each donor was stained with 10 μl Vβ11, 10 μl anti-TCRαβ-FITC, and 2 μl PE-labeled empty-CD1d-tetramer.
To determine a percentage increase in NKT cells, the number of NKT cells on day 7 was divided by the number of NKT cells on day 0.

[3] = tested on: TCRαβ cells and NKT cells in the spleen; experiment: TCRαβ and NKT cell populations in the spleen of mice 24 hours after intravenous administration; type: in vivo, C57B1/6J mice; conditions: 0.97 μg αGalCer or 1.3 μg PBS57, 24 hours; for percentage of TCRαβ cells in the spleen: compared with PBS and carrier control (FIG. 4A); for percentage of NKT cells within the TCRαβ population in the spleen: relative to control (FIG. 4B)
Method: (§1) To test for adjuvant activity of PBS57 in vivo, mice were injected with test compounds and assayed for cell activation and expansion at 24 hours. Four groups of five C57B1/6J mice were each intravenously administered phosphate buffered saline (PBS) with carrier (DMSO alone), 0.97 μg of αGalCer, 1.3 μg of PBS57, or 0.97 μg of PBS83 in a total of 100 μl PBS. 24 hours after administration of the test compound, the mice were sacrificed and blood samples and splenocytes were isolated by standard methods. Percentage of NKT cells in the spleen was evaluated by flow cytometry with staining using anti-TCRαβ-FITC and PE-labeled CD1d-tetramer loaded with PBS-57 (PBS57-tetramer) or without lipid (empty-tetramer). […] The percentage of NKT cells was determined by subtracting the percentage of PBS57-tetramer+ cells from the percentage of empty-tetramer+ cells in the TCRαβ population.

[4] = tested on: CD11c+CD8α− and CD11c+CD8α+ dendritic cells; experiment: Dendritic cell subsets and maturation (CD40, CD80, CD86) in splenocytes of mice 24 hours after intravenous administration; type: in vivo, C57B1/6J mice; conditions: for decrease of both subsets of DCs (CD11c+CD8α− and CD11c+CD8α+) compared to the control: splenocytes; for percentage of CD40+, CD80+ and CD86+ expressing cells in both the CD11c+CD8α− and CD11c+CD8α+ populations: splenocytes (FIGS. 5A-5F)
Method: as §1
Dendritic cells (DCs) were detected in the splenocytes by flow cytometry by staining with anti-CD11c R-PE (BD Pharmingen) and anti-CD8α FITC (Beckman Coulter). Two subsets of dendritic cells, CD11c+CD8α− and CD11c+CD8α+ populations, were analyzed further. […] To determine if administration of glycolipid induced maturation of the two subsets of dendritic cells, the cells were stained with anti-CD40 Biotin/Stepta APC (BD Bioscience), anti-CD80 Biotin (BD Pharmingen)/Stepta APC (BD Bioscience) and anti-CD86 Biotin (BD Pharmingen)/Stepta APC (BD Bioscience) antibodies and analyzed by flow cytometry. FIGS. 5A and 5B show the percentage of CD40 positive cells in both the CD11c+CD8α− and CD11c+CD8α+ cells, respectively. […] Horizontal lines represent the averages.

[5] = tested on: Ova-specific target cells; experiment: In vivo specific cytotoxic T cell (CD8+) response: specific lysis of CFSE-labeled SIINFEKL-loaded target cells in immunized mice; parameters: species or system C57/B1/6J CD45.2 female mice; conditions: for specific lysis of Ova-specific target cells in the blood, IM versus IV: 400 μg Ova and 1 μg adjuvant in 50 μl PBS, IM or IV, readout day 11 (FIG. 13); for specific lysis of Ova-specific target cells in the blood, intramuscular immunization: IM hind left leg, 400 μg Ova with 1 μg to 10 pg adjuvant, readout day 11 (FIG. 11, FIG. 12); for specific lysis of Ova-specific target cells in the blood, intravenous immunization: 50 μg Ova with varying doses of adjuvant, readout day 11 (FIG. 8, FIG. 9)
tetanus toxoid = experiment: Antibody (IgG) response to tetanus toxoid immunization, tetanus toxoid specific ELISA; type: in vivo; conditions: mice, IM day 0 and day 15, 10 μg TT with 1 μg PBS57 versus TT alone, blood day 0, 15 and 30 (FIG. 14)
Method: IgG titers were determined by standard methods from blood samples drawn on day 0, 15 and 30. The antibody titer was determined by tetanus toxoid specific ELISA.

[6] = tested on: Ova-specific CD8+ T cells; experiment: H2Kb-SIINFEKL pentamer staining of CD8+ T cells in blood after immunization with Ova; type: in vivo, C57/B1/6J CD45.2 female mice
Method: A mouse model was used to test the in vivo specific T cell response (CD8+) elicited by PBS57 in combination with antigen. C57/B1/6J CD45.2 female mice were immunized intramuscularly on day 0 and 14 with antigen (Ovalbumin, Ova, grade VII, Sigma, St. Louis, Mo.) with or without adjuvant, adjuvant alone, or carrier alone (control) in a total of 100 μl PBS carrier. Test adjuvant was 1 μg PBS57 with or without 50 μg Ova. Each group included at least three mice. Blood was collected from each mouse at day 21 and isolated cells were subjected to pentamer staining with H2K^b-SIINFEKL pentamers after blocking the Fc receptor. FACS analysis was performed including only CD8+ cells in the analysis (CD19+ cells were excluded from the analysis to exclude any B cells). […] The results are reported as mean+/−standard deviation of H2K^b-SIINFEKL specific CD8+ T cells in the blood.
A mouse model was used to test the in vivo specific T cell response (CD8+) elicited by PBS57 in combination with antigen as compared to that of αGalCer. C57/B1/6J CD45.2 female mice were immunized subcutaneously on day 0 and 14 with antigen (Ovalbumin, Ova, grade VII, Sigma, St. Louis, Mo.) with or without adjuvant, adjuvant alone, or carrier alone (control) in a total of 100 μl PBS carrier. Test adjuvant was 1 μg PBS57 or αGalCer with or without 50 μg Ova. Each group included at least three mice. […]

INF-γ and IL-4 = conditions: in vitro; cited from earlier work

Row | SMILES | percentage of NKT cells in the CD3+ population (NKT cells [1]) | increase in NKT cells over cells treated with αGalCer (NKT cells [1]; separate experiment, PBL of two healthy donors, 1, 10 and 100 ng/ml, day 7 (FIG. 2)) | increase in NKT cells (number on day 7 divided by number on day 0) (NKT cells [2]) | percentage of TCRαβ cells in the spleen [3] | percentage of NKT cells within the TCRαβ population in the spleen [3] | decrease of both subsets of DCs (CD11c+CD8α− and CD11c+CD8α+) compared to the control [4] [%] | percentage of CD40+, CD80+ and CD86+ expressing cells in both the CD11c+CD8α− and CD11c+CD8α+ populations [4] | specific lysis of Ova-specific target cells in the spleen ([5]; 1 μg adjuvant with 50 μg Ova on day 0, target cells day 10, readout day 11 (FIG. 7)) | specific lysis of Ova-specific target cells in the blood, IM versus IV [5] | specific lysis of Ova-specific target cells in the blood, intramuscular immunization [5] | specific lysis of Ova-specific target cells, varying Ova dose ([5]; IV, 1 μg PBS57 with 50 μg to 10 pg Ova, readout day 11 (FIG. 10)) | specific lysis of Ova-specific target cells in the blood, intravenous immunization ([5]; IV) | antibody (IgG) titer to tetanus toxoid (tetanus toxoid) | H2Kb-SIINFEKL specific CD8+ T cells in the blood, intramuscular immunization ([6]; IM day 0 and 14, 1 μg PBS57 with 50 μg Ova, compared to Ova alone, blood day 21 (FIG. 15)) | H2Kb-SIINFEKL specific CD8+ T cells in the blood, subcutaneous immunization ([6]; SC day 0 and 14, 1 μg PBS57 with 50 μg Ova, compared to Ova alone or αGalCer and Ova, blood day 21 (FIG. 16)) | release of INF-γ and IL-4 (INF-γ and IL-4)
1 | CCCCCCCCC=CCCCCCCCCCCCCCC(=O)N[C@@H](OC1OC(CNC(C)=O)C(O)C(O)C1O)C(O)[C@H](O)CCCCCCCCCCCCCC (stereo partly drawn) [PBS57] | expansion of NKT cells | at least a two fold increase | substantial increase in NKT cells | increase in percentage of TCRαβ cells | decrease in percentage of NKT cells | 50 | substantially increased | produced cytotoxic lysis of Ova-specific target cells | caused a cytotoxic response regardless of the route of administration | can elicit a specific cytotoxic response when injected both intravenously and intramuscularly | dependent on antigen concentration | dose-dependent specific cytotoxic effect | enhanced the antibody response to TT | increase in Ova-specific CD8+ T cells | increase in Ova-specific CD8+ T cells | induce the release of the INF-γ and IL-4
2 | CCCCCCCCCCCCCCCCCCCCCCCCCC(=O)N[C@@H](COC1OC(CO)C(O)C(O)C1O)[C@H](O)[C@H](O)CCCCCCCCCCCCCC (stereo partly drawn) [αGalCer, α-galactosyceramide, reference compound] | expansion of NKT cells | – | – | increase in percentage of TCRαβ cells | decrease in percentage of NKT cells | 50 | substantially increased | – | did not induce a cytotoxic response when injected intramuscularly | not able to generate a specific cytotoxic T cell response; also recorded: can only elicit a cytotoxic response when injected intravenously | – | dose dependent specific cytotoxic effect; also recorded: elicited a cytotoxic response when injected intravenously at 1 μg-10 ng | – | – | – | –
